For data set [1], the system named is activated AMPK. As to the kind of experiment: Western immunoblot for activated (phospho-Thr172) AMPK in muscle cells. It counts as cell-based, mouse. Conditions: for FOLD AMPK ACTIVATION (OVER CONTROL): cells treated 30 minutes at 37° C. As for the experimental part: (§1) The levels of Glut-4, activated AMPK and activated Akt were measured in mouse muscle cells C2C12 (from ATTC) and in primary culture of human skeletal muscle cells (Clonetics, Inc.) using Western immunoblotting. C2C12 cells were plated at 1.5×1-exp5 cells per mL/well (12-well plate) in standard cell culture medium (DMEM supplemented with 10% fetal bovine serum (FBS), 25 mM glucose, 20 mM Hepes, 4 mM glutamine and 2 mM sodium pyruvate. 48 hrs after the plating, medium was changed to differentiation medium (DMEM supplemented with 5 mM of glucose and 0.5% of FBS) for next 3-4 days to stimulate the formation of myotubes. Three hours before the treatment with selected agents, cells were washed with PBS and transferred to PBS supplemented with 5 mM of glucose.
(§2) Human skeletal muscle cells (HSKM) were cultured in SKBM-2 mediums provided by Clonetics. 48 hrs after cell plating, medium was changed to SKBM medium to stimulate differentiation of the cells to myotubes. When differentiated, the myotubes were transferred to PBS supplemented with 5 mM glucose for three hrs before the treatment.
(§3) Analysis of C2C12 cells for the level of activated AMPK, Akt and the level of GLUT-4 was performed in the same experimental system. The cells were treated for 30 minutes at 37° C. […] Subsequently, 20 μg per sample of sample protein was used for Western analysis using NuPage 10% Bis/Tris gels (Invitrogen). After exposure of membranes to primary and secondary antibodies AMPK, AKT or Glut-4 was detected using ECL-Plus (Amersham) following producer's instruction. Chemilumiscent signals were detected by using ChemiDoc system from Biorad. Intensity of detected signals were analyzed and measured using Quantity One software (Biorad). Alternatively, the level of phosphorylated AMPK was detected using ECL kit from Amersham and short exposure to Kodak films.
(§4) Experimental setup: Cell Culture was followed by treatment with selected contemplated compounds, which was followed by cell lysis and western blot analysis for AMPK, Akt, GLUT4, total AMPK, and total Akt. Signals were acquired accordingly.

The subject of data set [2] is activated Akt. As to the kind of experiment: Western immunoblot for activated (phospho-Ser473) Akt in muscle cells. The note with it: for FOLD AKT ACTIVATION (OVER CONTROL): cells treated 30 minutes at 37° C. The data set is classed as cell-based, mouse. As for the experimental part:
as §1, §2, §3, §4
(In general: In western blotting, separated proteins are transferred to a membrane and probed.)

The test system of data set [3] is GLUT-4. In words: Western immunoblot for GLUT-4 protein level in C2C12 cells. The data set is classed as cell-based, mouse. The procedure: as §1
Analysis of C2C12 cells for the level of activated AMPK, Akt and the level of GLUT-4 was performed in the same experimental system. The cells were treated for 30 minutes at 37° C. After the treatment, the cells were washed with ice-cold PBS and lysed with 80 μl of lysis buffer/well (M-PER buffer from Pierce supplemented with protease and phosphatase inhibitor mix (Calbiochem) for 10 minutes on ice. Next, the plates were transferred to −20° C. to improve the lysis of the cells. Next cells were sonicated for 5 minutes and lysate was transferred to Eppendorf tubes and centrifuged at 14,000 rpm for 10 minutes. Supernatants were collected in fresh Eppendorf tubes and kept on ice to measure the amount of total proteins. 3 μl of each lysate was used to measure the protein concentration using standard Bradford method (Biorad). Subsequently, 20 μg per sample of sample protein was used for Western analysis using NuPage 10% Bis/Tris gels (Invitrogen). After exposure of membranes to primary and secondary antibodies AMPK, AKT or Glut-4 was detected using ECL-Plus (Amersham) following producer's instruction. Chemilumiscent signals were detected by using ChemiDoc system from Biorad. Intensity of detected signals were analyzed and measured using Quantity One software (Biorad). Alternatively, the level of phosphorylated AMPK was detected using ECL kit from Amersham and short exposure to Kodak films.
Experimental setup: Cell Culture was followed by treatment with selected contemplated compounds, which was followed by cell lysis and western blot analysis for AMPK, Akt, GLUT4, total AMPK, and total Akt. Signals were acquired accordingly. Primary antibodies used in these studies are the following: Anti-phospho-AMPK (Thr172), mouse, rabbit IgG, from Cell Signaling, #2531; Anti-phospho-Akt (Ser473), mouse, rabbit IgG, Cell Signaling, #9271; Anti-Glut-4, mouse, rabbit IgG, Calbiochem, #400064; Anti-AMPK (total), mouse, rabbit IgG, Cell Signaling, #2532; Anti-Akt (total), mouse, rabbit IgG, Cell Signaling, #9272.
The effects of kinetin, N^2-Acetyl-Guanosine and N^2-Acetyl-Guanine on GLUT-4 protein level in C2C12 cells were investigated following the same experimental design as described for AMPK and AKT. Anti-Glut-4 antibody used in this study was from Calbiochem. […] Table 3 refers to multiple independent experiments where multiple identical concentrations for the same reagents are indicated.

The test system of data set [4] is muscle cells. In words: Total glucose uptake in vitro with fluorescent glucose analog. The data set is classed as cell-based. The note with it: for AVERAGE (N = 3) fluorescence of fluorescent glucose in the cells / FOLD CHANGE IN TOTAL GLUCOSE UPTAKE (OVER CONTROL): 30 minutes at 37 C. The procedure:
Total glucose uptake was measured using fluorescent glucose analog from Molecular Probes. Briefly, muscle cells were treated with kinetin, N^2-Acetyl-Guanosine and N^2-Acetyl-Guanine for 30 minutes at 37 C first and subsequently, these cells were exposed to 500 μM of fluorescent glucose analog for 5 minutes at room temperature. Next, cells were washed twice with cold Krebs-Hepes buffered solution and fixed in 70% ethanol in water. Fluorescence of fluorescent glucose in the cells was measured using fluorescent plate reader at 480/530 nm (excitation/emission). […] Table 4 refers to multiple independent experiments where multiple identical concentrations for the same reagents are indicated.

The nature of data set [5]: Oral availability and serum level of DHZ by ELISA. The data set is classed as in vivo, C57/B1 mice. Conditions: 100 microgram/dose, mice; for concentration at 0 minutes / concentration at 15 minutes / concentration at 30 minutes / concentration at 60 minutes / concentration at 120 minutes: C57/B1, mouse, serum. As for the experimental part:
C57/B1 mice were treated with 100 microgram/dose of dihydrozeatin (DHZ) for 0, 15, 30, 60 and 120 minutes following oral or i.p. administration. Serum level of DHZ in pg/ml was measured using DHZ Elisa following procedures as enclosed in a commercially available test kit (e.g., dihydrozeatin competitive ELISA test system for plant growth hormone detection, Agdia, Elkhard, Ind.).
(ELISA stands for enzyme-linked immunosorbent assay.)

[6] abbreviates: concentration 0.15 (unit not given).
Where [7] appears, read: concentration 0.3 (unit not given).
Where [8] appears, read: concentration 0.75 (unit not given).
The mark [9] stands for this setting: concentration 1.5 (unit not given).
[10] abbreviates: concentration 3.75 (unit not given).
Where [11] appears, read: concentration 7.5 (unit not given).

Where “and” joins values, the source holds several entries; their conditions need not be identical. Equal entries are not always repeated.

Regarding `CN(C)C(=N)N=C(N)N` [Metformin, reference compound], in data set [1] (2.0 milliM), the “FOLD AMPK ACTIVATION (OVER CONTROL)” value amounted to 1.42 fold. The “FOLD AKT ACTIVATION (OVER CONTROL)” value in data set [2] (2.0 milliM) was 2.70 fold. Further, the “FOLD CHANGE IN GLUT-4 LEVEL (OVER CONTROL)” value (shortened to “FOLD CHANGE IN GLUT-4 LEVEL”) in data set [3] (2000 microM) is recorded as 1.50 fold.
As for `CC(=O)Nc1nc2c(ncn2[C@@H]2O[C@H](CO)[C@@H](O)[C@H]2O)c(=O)[nH]1` [N^2-Acetyl-Guanosine], the “FOLD AMPK ACTIVATION (OVER CONTROL)” value was 3.75 fold in data set [1] (0.3 microM); 2.20 fold in data set [1] (0.8 microM); 4.28 fold in data set [1] (1.5 microM); 2.20 fold in data set [1] (2.0 microM); 1.71 fold in data set [1] (7.5 microM); 2.28 fold in data set [1] (37.5 microM). In data set [1] (no concentration stated), the “effect on AMPK activity (in words)” value is “potent activators of AMPK”. For the same compound, the “FOLD AKT ACTIVATION (OVER CONTROL)” value in data set [2] (0.1 microM) is 2.57 fold; in data set [2] (0.3 microM), 1.92 fold and 2.57 fold; in data set [2] (0.8 microM) it was 1.75 fold and 2.95 fold; in data set [2] (1.5 microM) it was 1.55 fold; in data set [2] (2.0 microM) it was 2.17 fold; in data set [2] (5.0 microM) it was 1.23 fold. For the same compound, the “FOLD AKT ACTIVATION (OVER CONTROL)” value in data set [2] (7.5 microM) was determined as 1.68 fold. The “effect on Akt activity (in words)” value in data set [2] (no concentration stated) was “potent activators of AMPK as well as Akt”. Also, the “effect on GLUT-4 protein level (in words)” value in data set [3] is “potently increase GLUT-4 protein level”. Further, the “FOLD CHANGE IN GLUT-4 LEVEL” value was found to be 1.21 fold in data set [3] (0.3 microM), 1.74 fold in data set [3] (1.5 microM), 3.14 fold in data set [3] (7.5 microM) and 3.03 fold in data set [3] (37.5 microM). Further, the “effect on glucose uptake in muscle cells in vitro (in words)” value in data set [4] is on record as “potently enhance glucose uptake in muscle cells in vitro”. For the same compound, the “AVERAGE (N = 3) fluorescence of fluorescent glucose in the cells” value in data set [4] (setting [6]) is given as 90.5 +/− 1.7; in data set [4] (setting [7]), 44.1 +/− 0.7; in data set [4] (setting [8]), 109.5 +/− 2.6; in data set [4] (setting [9]) it was 54.3 +/− 0.9; in data set [4] (setting [10]), 148.7 +/− 8.5; in data set [4] (setting [11]), 61.7 +/− 1.3. Further, the “FOLD CHANGE IN TOTAL GLUCOSE UPTAKE (OVER CONTROL)” value in data set [4] (setting [6]) was 1.94 fold; in data set [4] (setting [7]), 2.17 fold; in data set [4] (setting [8]), 2.35 fold; in data set [4] (setting [9]), 2.67 fold; in data set [4] (setting [10]) it was 3.18 fold; in data set [4] (setting [11]), 3.03 fold.
For the compound `CC(CO)CCNc1ncnc2nc[nH]c12` (stereo not drawn) [Dihydro-Zeatin, dihydrozeatin], the “FOLD AMPK ACTIVATION (OVER CONTROL)” value in data set [1] (0.5 microM) was 2.25 fold. Further, the “FOLD AMPK ACTIVATION (OVER CONTROL)” value in data set [1] (5.0 microM) came to 0.59 fold. Moreover, the “FOLD AMPK ACTIVATION (OVER CONTROL)” value in data set [1] (50.0 microM) is reported as 0.88 fold. Further, in data set [5] (ip), the concentration at 0 minutes came out at 0.3 ng/mL, the concentration at 15 minutes was 1.15 ng/mL, the concentration at 30 minutes stood at 0.991 ng/mL and the concentration at 60 minutes came out at 0.746 ng/mL. This compound displayed a concentration at 120 minutes in data set [5] (ip) of 0.471 ng/mL. In addition, in data set [5] (Oral), the concentration at 0 minutes was determined as 0.3 ng/mL, the concentration at 15 minutes is 0.952 ng/mL, the concentration at 30 minutes stood at 1.02 ng/mL and the concentration at 60 minutes is 0.961 ng/mL. In addition, the concentration at 120 minutes in data set [5] (Oral) turned out to be 0.853 ng/mL. Also, in data set [5], the “oral bioavailability (in words)” value is reported as “readily bioavailable from the oral route” and the “time over which significant serum concentrations can be maintained” value is “at least 120 minutes”.
As to `CN(CCOc1ccc(CC2SC(=O)NC2=O)cc1)c1ccccn1` (stereo not drawn) [Rosiglitazone, reference compound], in data set [1] (3.0 microM), the “FOLD AMPK ACTIVATION (OVER CONTROL)” value is on record as 3.50 fold. Further, the “FOLD AKT ACTIVATION (OVER CONTROL)” value in data set [2] (1.0 microM) is 2.83 fold; in data set [2] (9.0 microM), 1.78 fold; in data set [2] (27.0 microM) it was 0.71 fold. Further, the “FOLD CHANGE IN GLUT-4 LEVEL” value in data set [3] (9.0 microM) is on record as 3.61 fold; in data set [3] (27.0 microM), 3.19 fold.
